Laboratory results taken from ChEMBL document CHEMBL1133407, “Ring constrained analogues of beta-alanine-containing GPIIb/IIIa receptor antagonists” (Bioorg Med Chem Lett, 2000).

Legend:
[1] = target: T1, Integrin alpha-IIb/beta-3 (Homo sapiens, UniProt P05106+P08514); test: Inhibition of Platelet glycoprotein IIb/Platelet glycoprotein IIIa binding in unactivated human platelets
Target sequence in this assay (P05106 27-788 limits assumed): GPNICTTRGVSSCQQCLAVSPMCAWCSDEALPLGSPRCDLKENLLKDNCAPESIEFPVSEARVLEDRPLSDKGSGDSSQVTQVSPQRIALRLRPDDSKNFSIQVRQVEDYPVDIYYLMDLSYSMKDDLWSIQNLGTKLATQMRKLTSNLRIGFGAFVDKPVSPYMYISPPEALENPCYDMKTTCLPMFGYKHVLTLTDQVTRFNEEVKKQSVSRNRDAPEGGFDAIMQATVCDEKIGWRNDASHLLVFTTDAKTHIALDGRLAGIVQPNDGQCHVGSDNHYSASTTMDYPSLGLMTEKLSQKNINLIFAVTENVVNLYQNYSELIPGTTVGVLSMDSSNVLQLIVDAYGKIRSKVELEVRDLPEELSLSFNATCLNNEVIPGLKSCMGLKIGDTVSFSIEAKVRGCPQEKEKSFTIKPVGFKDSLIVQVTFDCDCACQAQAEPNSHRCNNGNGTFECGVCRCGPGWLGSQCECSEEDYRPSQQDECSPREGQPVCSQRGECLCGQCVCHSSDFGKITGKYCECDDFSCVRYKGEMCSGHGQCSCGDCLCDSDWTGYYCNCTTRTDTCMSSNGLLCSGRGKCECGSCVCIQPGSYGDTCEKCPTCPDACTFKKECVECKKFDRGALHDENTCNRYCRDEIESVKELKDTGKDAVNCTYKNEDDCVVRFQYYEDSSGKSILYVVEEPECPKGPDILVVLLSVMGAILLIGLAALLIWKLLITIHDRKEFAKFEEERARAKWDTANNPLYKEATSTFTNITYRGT
Target sequence in this assay (P08514 32-887 limits assumed): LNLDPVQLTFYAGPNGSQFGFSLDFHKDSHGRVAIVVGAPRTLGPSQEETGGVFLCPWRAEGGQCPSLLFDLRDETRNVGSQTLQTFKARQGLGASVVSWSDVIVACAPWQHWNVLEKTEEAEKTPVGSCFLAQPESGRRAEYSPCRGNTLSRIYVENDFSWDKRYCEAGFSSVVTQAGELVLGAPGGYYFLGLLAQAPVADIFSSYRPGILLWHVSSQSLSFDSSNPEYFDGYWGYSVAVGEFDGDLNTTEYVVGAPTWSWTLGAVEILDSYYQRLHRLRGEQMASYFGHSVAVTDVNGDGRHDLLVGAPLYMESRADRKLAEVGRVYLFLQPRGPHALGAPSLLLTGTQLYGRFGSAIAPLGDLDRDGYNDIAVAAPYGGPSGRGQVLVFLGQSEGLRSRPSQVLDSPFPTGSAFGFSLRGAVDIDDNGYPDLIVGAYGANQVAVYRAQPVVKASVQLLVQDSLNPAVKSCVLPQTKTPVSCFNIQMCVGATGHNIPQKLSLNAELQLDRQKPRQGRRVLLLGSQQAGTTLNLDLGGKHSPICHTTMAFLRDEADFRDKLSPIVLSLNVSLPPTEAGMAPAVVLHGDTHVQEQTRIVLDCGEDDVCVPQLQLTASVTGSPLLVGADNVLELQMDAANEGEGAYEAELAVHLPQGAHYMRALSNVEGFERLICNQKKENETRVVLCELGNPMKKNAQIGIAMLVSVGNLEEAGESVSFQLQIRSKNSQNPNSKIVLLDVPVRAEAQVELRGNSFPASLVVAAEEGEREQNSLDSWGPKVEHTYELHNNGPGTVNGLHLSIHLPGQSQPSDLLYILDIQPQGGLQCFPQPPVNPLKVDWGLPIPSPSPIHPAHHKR
Target sequence in this assay (P08514 891-1039 limits assumed): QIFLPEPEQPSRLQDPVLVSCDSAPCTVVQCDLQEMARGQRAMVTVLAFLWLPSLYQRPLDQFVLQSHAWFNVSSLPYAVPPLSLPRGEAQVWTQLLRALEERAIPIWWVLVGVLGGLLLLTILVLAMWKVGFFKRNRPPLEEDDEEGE

[2] = target: T1, Integrin alpha-IIb/beta-3; test: Inhibition of GPIIb/IIIa binding in activated human platelets; assay type: functional
Target sequence in this assay (P05106 27-788 limits assumed): as the sequence (P05106 27-788 limits assumed) above
Target sequence in this assay (P08514 32-887 limits assumed): as the sequence (P08514 32-887 limits assumed) above
Target sequence in this assay (P08514 891-1039 limits assumed): as the sequence (P08514 891-1039 limits assumed) above

[3] = target: T1, Integrin alpha-IIb/beta-3; test: Relative binding to unactivated/activated platelets

Compound	IC50 [1] [nM]	IC50 [2] [nM]	Ratio [3]
N=C(N)c1ccc(C2=NOC(CC(=O)N3CCCCC3CC(=O)O)C2)cc1 (single isomer, unassigned; isomer B) [listing 1 of 2 here]	5800	302	
N=C(N)c1ccc(C2=NOC(CC(=O)NCCC(=O)O)C2)cc1 (stereo not given)	112	4	28
N=C(N)c1ccc(C2=NOC(CC(=O)N3CCCCC3CC(=O)O)C2)cc1 (single isomer, unassigned; isomer C) [listing 1 of 2 here]	64	2	
N=C(N)c1ccc(C2=NOC(CC(=O)N3CCCCC3CC(=O)O)C2)cc1 (single isomer, unassigned; isomer D)	> 5000		
N=C(N)c1ccc(C2=NOC(CC(=O)N3CCCCC3CC(=O)O)C2)cc1 (single isomer, unassigned; isomer B) [listing 2 of 2 here]			19
N=C(N)c1ccc(C2=NOC(CC(=O)N3CCCCC3CC(=O)O)C2)cc1 (single isomer, unassigned; isomer C) [listing 2 of 2 here]			32
